From patent publication US12291522B2, “Galectin-3 inhibitors” (BRISTOL-MYERS SQUIBB COMPANY, priority 2020, dated 2025)
Where two headings read alike, the source gives them in different places.

What was measured:
[1] = target: T1, hCRBN (NanoLuc-CRBN fusion construct in HEK-293 cells) (Homo sapiens, UniProt Q96SW2); test: CRBN BRET Target Engagement; format: cell-based; conditions: NanoLuc-CRBN transfected HEK-293 cells, BRET with CRBN Probe
T1 construct: expressed in transfected cells; host or cells: HEK-293
T1 sequence (Q96SW2 whole entry, the tested form may be a part): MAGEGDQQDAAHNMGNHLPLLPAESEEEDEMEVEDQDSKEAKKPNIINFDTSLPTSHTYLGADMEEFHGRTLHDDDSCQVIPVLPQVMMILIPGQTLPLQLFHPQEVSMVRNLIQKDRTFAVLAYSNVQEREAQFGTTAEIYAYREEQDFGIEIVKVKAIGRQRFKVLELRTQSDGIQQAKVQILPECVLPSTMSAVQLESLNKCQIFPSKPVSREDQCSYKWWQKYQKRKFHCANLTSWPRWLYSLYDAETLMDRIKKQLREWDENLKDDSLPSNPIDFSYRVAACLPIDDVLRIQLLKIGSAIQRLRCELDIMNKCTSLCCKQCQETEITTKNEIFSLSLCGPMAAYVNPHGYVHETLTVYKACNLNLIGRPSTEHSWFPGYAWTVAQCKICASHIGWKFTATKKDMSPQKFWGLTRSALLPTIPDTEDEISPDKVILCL
Description: CRBN BRET Target Engagement (hCRBN IC50 (μM))
NanoLuc-CRBN fusion construct was transfected in HEK-293 cells using FuGENE HD (Promega) according to the manufacturer's protocol. In brief, Nluc-CRBN was diluted into Transfection Carrier DNA (Promega) 1:10 (mass/mass), to which FuGENE HD was 1:3 (μg DNA:μL FuGENE HD). One part (vol) of DNA:FuGENE HD complexes were combined with 20 parts (vol) of HEK-293 cells suspended at a density of […]. Cells were incubated for ˜20 hr at 37° C./5% CO2. Following transfection, cells were washed and resuspended at 200,000 cells/mL in OptiMEM without phenol red (Gibco).
For BRET measurements, cells were seeded in a 384-well nonbinding surface plate (Corning) plate for a final count of 10,000 cells/well. Compounds were dissolved at 10 mM in dimethylsulfoxide (DMSO) and evaluated at eleven concentrations using a high concentration of […]. CRBN Probe was used for equilibrium measurements, employing a final concentration of approximately EC50-80. For live-cell measurements, 20 nM of CRBN Probe was added. For the live-cell assay conditions, the plates were incubated for 2 hours at 37° C./5% CO2. NanoBRET NanoGlo Substrate and Extracellular Nanoluc Inhibitor (Promega) were added according to manufacturer's guidelines. For lytic cell measurements, digitonin was added to the cells to a final concentration of 50 μg/mL and 20 nM of CRBN Probe was added. To measure NanoBRET in permeabilized cells, extracellular Nluc inhibitor was omitted during the detection step. For all BRET experiments, the Envision 2015 (Perkin Elmer) equipped with a BRET2 Enh mirror, BRET 647 nM/75 nM Bandwidth and BC703 460 nM/80 nM Bandwidth filters was used for readouts. Each read was integrated for 0.5 s.
To determine compound potency (IC50), BRET ratios for each dilution series was first normalized to a % Inhibition value via Equation 1, where “S” represents Sample BRET, “B” represents Background BRET, and “T” represents Total BRET. In this equation, the background control (B) consists of NanoLuc-CRBN expressing cells and no CRBN Probe. The total BRET Ratio (T) consists of NanoLuc-CRBN expressing cells, CRBN Probe, and an amount of DMSO at a concentration equivalent to that added when testing compounds.
Following normalization, the percent inhibition values are plotted as a function of compound concentration and fit to Equation 2. […]

[2] = target: His-tagged recombinant human Gal-3 (hGal-3) (Homo sapiens, UniProt P17931); test: Gal-3 HTRF assay (His-tagged hGal-3 / B-ASF); format: binding; conditions: 15 nM hGal-3, 15 nM B-ASF
Sequence of His-tagged recombinant human Gal-3 (hGal-3) (P17931 whole entry): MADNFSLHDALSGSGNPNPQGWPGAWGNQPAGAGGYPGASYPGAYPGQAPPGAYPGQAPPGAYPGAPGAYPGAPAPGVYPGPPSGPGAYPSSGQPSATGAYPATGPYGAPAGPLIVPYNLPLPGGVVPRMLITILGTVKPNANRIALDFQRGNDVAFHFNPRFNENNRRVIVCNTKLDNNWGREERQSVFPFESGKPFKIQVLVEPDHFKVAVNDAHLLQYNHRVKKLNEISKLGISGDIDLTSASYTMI
Description: ASSAY BUFFER Composition: 25 mM HEPES, 100 mM NaCl, 0.005% Tween 20, 0.05% BSA prepared in sterile water (all reagents from Sigma).
• Positive Control: 100% DMSO (1 μL)+His-tagged hGal-3 (20 μL)+B-ASF (20 μL)+Anti-His Terbium Antibody (5 μL)+Strep d2 Antibody (5 μL). • Negative Control: 100% DMSO (1 μL)+His-tagged hGal-3 (20 μL)+Anti His Terbium Antibody (5 μL)+Strep d2 Aantibody (5 μL). Stocks Preparation:
PROTOCOL: The Gal-3 assays were performed in 384 white Opti plates in three replicates at room temperature with gentle shaking at 250-300 rpmFrom the original stocks, […] working stock concentrations of His-tagged recombinant human Gal-3 (hGal-3) and that of B-ASF were prepared. From the working stock, 20 μL of hGal-3 (15 nM) and 20 μL B-ASF (15 nM) were added to the plates. In Negative Control, only hGal-3 was added. A concentration range of 50× working stocks were prepared for the compounds in 100% DMSO. Aliquots of luL of the compounds were added to the wells and pre-incubated with 20 μL hGal-3 per well for 30 minutes Then 20 μL B-ASF wereadded and incubated for another 1 hour. To detect the signal, 5 μL (final conc. of 1.0 nM) terbium labelled Anti-His antibody was added and incubated for 30 min followed by adding 5 μL (final conc. of 20 nM) Streptavidin d2 and incubation for another 1 hour. The assay signal was detected using HTRF screen protocol (Excitation wavelength=340 nm, emission wavelength=615 nm/665 nm) on Envision 2104 Multilabel Reader. Data analysed using Toolset and Curve Master. Results are reported in the experimental section (IC50 in μM).

[3] = target: T2, Gal3 (Human Galectin-3) in THP-1 cells (Homo sapiens, UniProt P17931); test: ELISA Gal3 Degradation Assay in THP-1 Cells; format: cell-based; conditions: 48 hours, culture media Gal3 by ELISA
T2 construct: host or cells: THP-1
T2 sequence (P17931 whole entry): as above
Description: [formula] ELISA Gal3 Degradation Assay in THP-1 Cells
THP-1 cells (ATCC, Cat #TIB-202), a human monocyte cell line derived from leukemia were plated at 2E6 cells/mL in 200 uL/well of RPMI 1640 (ThermoFisher, Cat #11835) in 96-well plates. Cells were treated with DMSO as a control and various concentrations of compounds for 48 hours. After the treatment, the culture media were collected. The PBS washed cell pellets were lysed in Lysis Buffer (Cell Signaling, Cat #9803) supplemented with 1XProtease Inhibitor Cocktail (Cell Signaling, Cat #5872). Gal3 levels in culture media and cell lysates were quantified by ELISA assays (Human Galectin-3 DuoSet ELISA kit, R&D Systems, Cat #DY1154) according to manufacturer's instructions. The cell culture media were also used for the assessment of cellular toxicity (LDH Assay kit, R&D Systems, DY994). The IC50 (degradation concentration at 50%) values were calculated based on the cellular Gal3 protein levels using DMSO as the control.

[4] = test 1, read-out: Supernatant (IC50) test 1
[5] = test 2, read-out: Supernatant (IC50) test 2

| Compound | IC50 [1] [nM] | IC50 [2] [nM] | IC50 [3, 4] [nM] | IC50 [3, 5] [nM] |
| --- | --- | --- | --- | --- |
| Cc1nc([C@@H]2O[C@H](CO)[C@H](O)[C@H](n3cc(-c4cc(F)c(Cl)c(F)c4)nn3)[C@H]2OCCOc2ccc(C(=O)Nc3ccc4c(c3)CN(C3CCC(=O)NC3=O)C4=O)cc2)n(-c2cc(Cl)ccc2C(F)(F)F)n1 (some centres unmarked) [Example 25] | 2690 | 139 | 1700 | 522 |
| Cc1nc([C@@H]2O[C@H](CO)[C@H](O)[C@H](n3cc(-c4cc(F)c(Cl)c(F)c4)nn3)[C@H]2OCC(=O)N2CCC(COc3ccc(C(=O)Nc4ccc5c(c4)CN(C4CCC(=O)NC4=O)C5=O)cc3)CC2)n(-c2cc(Cl)ccc2C(F)(F)F)n1 (some centres unmarked) [Example 27] | 374 | 312 |  | 40 |
| Cc1nc([C@@H]2O[C@H](CO)[C@H](O)[C@H](n3cc(-c4cc(F)c(Cl)c(F)c4)nn3)[C@H]2OCC(=O)N2CC(COc3ccc(C(=O)Nc4cccc5c4CN(C4CCC(=O)NC4=O)C5=O)cc3)C2)n(-c2cc(Cl)ccc2C(F)(F)F)n1 (some centres unmarked) [Example 30] | 10600 | 86 | 854 | 50 |
| Cc1nc([C@@H]2O[C@H](CO)[C@H](O)[C@H](n3cc(-c4cc(F)c(Cl)c(F)c4)nn3)[C@H]2OCC(=O)N2CCC(Oc3ccc(C(=O)Nc4ccc5c(c4)CN(C4CCC(=O)NC4=O)C5=O)cc3)CC2)n(-c2cc(Cl)ccc2C(F)(F)F)n1 (some centres unmarked) [Example 31] | 447 | 139 | 50 | 14 |
| Cc1nc([C@@H]2O[C@H](CO)[C@H](O)[C@H](n3cc(-c4cc(F)c(Cl)c(F)c4)nn3)[C@H]2OCC(=O)N2CC(COc3ccc(C(=O)Nc4cccc5c4CN(C4CCC(=O)NC4=O)C5=O)nc3)C2)n(-c2cc(Cl)ccc2C(F)(F)F)n1 (some centres unmarked) [Example 32] | 13700 | 94 | 1250 | 1580 |
| Cc1nc([C@@H]2O[C@H](CO)[C@H](O)[C@H](n3cc(-c4cc(F)c(Cl)c(F)c4)nn3)[C@H]2OCC(=O)N2CC3(CC(Oc4ccc(C(=O)Nc5ccc6c(c5)CN(C5CCC(=O)NC5=O)C6=O)cc4)C3)C2)n(-c2cc(Cl)ccc2C(F)(F)F)n1 (some centres unmarked) [Example 34] | 1020 | 110 | 4580 | 210 |

Other lines, results leading:

| IC50 [1] [nM] | IC50 [2] [nM] | IC50 [3, 4] [nM] | IC50 [3, 5] [nM] | Compound |
| --- | --- | --- | --- | --- |
| 1270 | 40 | 35 | 27 | Cc1nc([C@@H]2O[C@H](CO)[C@H](O)[C@H](n3cc(-c4cc(F)c(Cl)c(F)c4)nn3)[C@H]2OCC(=O)N2CC(COc3ccc(C(=O)Nc4ccc5c(c4)C(=O)N(C4CCC(=O)NC4=O)C5)cc3)C2)n(-c2cc(Cl)ccc2C(F)(F)F)n1 (stereo partly drawn) [Example 11, 4-((1-(2-(((2S,3R,4S,5R,6R)-2-(1-(5-Chloro-2-(trifluoromethyl)phenyl)-3-methyl-1H-1,2,4-triazol-5-yl)-4-(4-(4-chloro-3,5-difluorophenyl)-1H-1,2,3-triazol-1-yl)-5-hydroxy-6-(hydroxymethyl)tetrahydro-2H-pyran-3-yl)oxy)acetyl)azetidin-3-yl)methoxy)-N-(2-(2,6-dioxopiperidin-3-yl)-3-oxoisoindolin-5-yl)benzamide] |
| 110 | 220 | 13 | 14 | Cc1nc([C@@H]2O[C@H](CO)[C@H](O)[C@H](n3cc(-c4cc(F)c(Cl)c(F)c4)nn3)[C@H]2OCC(=O)N[C@H]2C[C@H](Oc3ccc(C(=O)Nc4ccc5c(c4)CN(C4CCC(=O)NC4=O)C5=O)nc3)C2)n(-c2cc(Cl)ccc2C(F)(F)F)n1 (some centres unmarked) [Example 18] |
| 930 | 70 | 1040 | 23 | Cc1nc([C@@H]2O[C@H](CO)[C@H](O)[C@H](n3cc(-c4cc(F)c(Cl)c(F)c4)nn3)[C@H]2OCC(=O)N[C@H]2C[C@@H](Oc3ccc(C(=O)Nc4cccc5c4CN(C4CCC(=O)NC4=O)C5=O)nc3)C2)n(-c2cc(Cl)ccc2C(F)(F)F)n1 (some centres unmarked) [Example 21] |
| 70 | 42 | 19 | < 10 | Cc1nc([C@@H]2O[C@H](CO)[C@H](O)[C@H](n3cc(-c4cc(F)c(Cl)c(F)c4)nn3)[C@H]2OCC(=O)N[C@H]2C[C@@H](Oc3ccc(C(=O)Nc4ccc5c(c4)C(=O)N(C4CCC(=O)NC4=O)C5)nc3)C2)n(-c2cc(Cl)ccc2C(F)(F)F)n1 (some centres unmarked) [Example 23] |
| 251 | 85 | 9 | 9 | Cc1nc([C@@H]2O[C@H](CO)[C@H](O)[C@H](n3cc(-c4cc(F)c(Cl)c(F)c4)nn3)[C@H]2OCC(=O)N2CC(COc3ccc(C(=O)Nc4ccc5c(c4)CN(C4CCC(=O)NC4=O)C5=O)nc3)C2)n(-c2cc(Cl)ccc2C(F)(F)F)n1 (some centres unmarked) [Example 26] |
| 498 | 77 | 314 | 338 | Cc1nc([C@@H]2O[C@H](CO)[C@H](O)[C@H](n3cc(-c4cc(F)c(Cl)c(F)c4)nn3)[C@H]2OCC(=O)N2CC(Oc3ccc(C(=O)Nc4ccc5c(c4)CN(C4CCC(=O)NC4=O)C5=O)nc3)C2)n(-c2cc(Cl)ccc2C(F)(F)F)n1 (some centres unmarked) [Example 35] |
